Data: paper PMC5410965 (ACS infectious diseases, 2016)

Columns and labels:
[1] = tested on: HepG2 human liver carcinoma cell line; experiment: Toxicity to HepG2 cells; details: concentrations as high as 50 μM
[2] = tested on: National Cancer Institute panel of sixty human cancer cell lines; experiment: National Cancer Institute panel of sixty human cancer cell lines, growth; assay type: cell-based; details: 10 μM; NCI sixty human cancer cell lines
Mtb 20S = Mtb 20S (Mycobacterium tuberculosis, UniProt P9WHT9); details: second-order rate constant for inhibition; substrate Suc-LLVY-AMC; triplicate
Sequence of Mtb 20S (P9WHT9 58-291): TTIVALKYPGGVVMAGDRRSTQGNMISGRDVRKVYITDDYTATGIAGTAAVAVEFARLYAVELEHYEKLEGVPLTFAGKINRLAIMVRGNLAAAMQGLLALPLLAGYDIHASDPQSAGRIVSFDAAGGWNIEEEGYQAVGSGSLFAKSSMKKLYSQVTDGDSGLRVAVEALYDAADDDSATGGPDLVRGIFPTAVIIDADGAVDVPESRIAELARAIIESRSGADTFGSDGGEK
Sequence of Mtb 20S (P9WHU1 whole entry partner): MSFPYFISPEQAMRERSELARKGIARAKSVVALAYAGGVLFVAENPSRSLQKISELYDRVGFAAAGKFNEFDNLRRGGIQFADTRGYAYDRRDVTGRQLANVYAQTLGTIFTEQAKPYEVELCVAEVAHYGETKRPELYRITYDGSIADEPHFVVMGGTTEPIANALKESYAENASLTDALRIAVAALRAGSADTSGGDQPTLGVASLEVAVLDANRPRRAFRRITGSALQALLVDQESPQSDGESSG

Mtb 20S versus human 20S = details: human 20S over Mtb 20S; cited from earlier work

| Compound | toxicity to HepG2 cells [1] | mean growth compared to untreated (vehicle) controls [2] | Mtb 20S kin/Ki (Mtb 20S) | preference for reversible inhibition of human 20S (Mtb 20S versus human 20S) |
| --- | --- | --- | --- | --- |
| COC(=O)[C@@H](NC(=O)N[C@H](C(=O)N[C@H]1CCCCNC(=O)/C=C/[C@H](C(C)C)NC1=O)C(C)C)C(C)C [Compound 1, syringolin B methyl ester] | toxic | 27% | 4.60 M⁻¹ s⁻¹ | – |
| CC(C)C[C@H](NC(=O)[C@H](Cc1ccccc1)NC(=O)c1cnccn1)B(O)O [bortezomib] | – | – | – | 18 fold |
